According to ChEMBL document CHEMBL1201862, “PubChem BioAssay data set” (2004):
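Tested at 5 concentrations; 48 h exposure; 96-well plates; endpoints linearly interpolated, else capped at highest concentration. GI50 is the concentration that inhibits growth by half.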 Active and inactive are the calls of the source. No stated cut-off is given here; in the data, active = GI50 up to about 1.1 µM and inactive = higher.

Assays:
Test in all cases: NCI tumour cell line growth inhibition, 48 h
[1] = test system: NCI-H522
[2] = test system: SK-OV-3
[3] = test system: MOLT-4
[4] = test system: DMS-114
[5] = test system: A549
[6] = test system: M19-MEL
[7] = test system: SW-620
[8] = test system: SNB-75
[9] = test system: RXF 393
[10] = test system: SNB-19
[11] = test system: SK-MEL-5
[12] = test system: HT-29
[13] = test system: U-251
[14] = test system: HOP-18
[15] = test system: DLD-1
[16] = test system: MDA-N
[17] = test system: Hs-578T
[18] = test system: MDA-MB-231
[19] = test system: MDA-MB-435
[20] = test system: PC-3

Measured: GI50

CCN(CC)c1cccc2c1/C(=N/O)CCCC2
inactive: [1] > 100 µM | [2] > 100 µM | [3] 65.8 µM | [4] 52.8 µM | [5] > 100 µM | [6] > 100 µM | [7] > 100 µM | [8] 84.1 µM | [9] 90.2 µM | [10] > 100 µM | [11] 70.8 µM | [12] 97.1 µM | [13] > 100 µM | [14] > 100 µM

C=CCCN1CCc2c([nH]c3ccccc23)C1C(=O)O (stereo unspecified)
inactive: [1] > 100 µM | [2] > 100 µM | [3] > 100 µM | [4] 63.4 µM | [5] > 100 µM | [6] > 100 µM | [7] > 100 µM | [8] 26.9 µM | [9] > 100 µM | [10] > 100 µM | [11] > 100 µM | [12] > 100 µM | [15] > 100 µM | [13] > 100 µM

COc1ccc(CCn2cncn2)cc1
inactive: [1] > 100 µM | [2] > 100 µM | [3] > 100 µM | [4] > 100 µM | [5] > 100 µM | [6] > 100 µM | [7] > 100 µM | [8] > 100 µM | [10] > 100 µM | [11] > 100 µM | [12] > 100 µM | [15] > 100 µM | [13] > 100 µM

CN1C(=O)CCC1c1ccc2c(c1)oc(=O)n2C (stereo unspecified)
inactive: [1] > 100 µM | [2] > 100 µM | [3] > 100 µM | [4] > 100 µM | [5] > 100 µM | [6] > 100 µM | [7] > 100 µM | [8] > 100 µM | [9] > 100 µM | [10] > 100 µM | [12] > 100 µM | [15] > 100 µM | [13] > 100 µM | [14] > 100 µM

O=C1c2ccccc2N(O)C1(c1ccccc1)C1CCCC=C1N1CCOCC1 (stereo unspecified)
inactive: [1] 22.5 µM | [2] > 100 µM | [3] 20.8 µM | [4] 50.1 µM | [5] 50.4 µM | [6] > 100 µM | [7] > 100 µM | [8] 18.4 µM | [9] 22.4 µM | [10] 57.9 µM | [11] > 69.5 µM | [12] > 100 µM | [15] > 100 µM | [13] 87.5 µM

O=C(NCCCl)SCCO
inactive: [1] > 100 µM | [2] > 100 µM | [3] > 100 µM | [4] > 100 µM | [5] > 100 µM | [6] > 100 µM | [7] > 100 µM | [8] > 100 µM | [9] > 100 µM | [10] > 100 µM | [12] > 100 µM | [15] > 100 µM | [13] > 100 µM

CCOC(=O)/C=C/n1c2ccccc2c(=O)c2ccccc21
inactive: [1] > 100 µM | [3] > 100 µM | [4] > 100 µM | [5] > 100 µM | [6] > 100 µM | [7] > 100 µM | [9] > 100 µM | [10] > 100 µM | [12] > 100 µM | [15] 23.1 µM | [13] > 100 µM

CC(=O)Nc1ccc(C(=O)NN2C(=O)C(Cl)/C2=C/c2ccco2)cc1 (stereo unspecified)
inactive: [1] > 100 µM | [2] > 100 µM | [3] > 100 µM | [5] > 100 µM | [6] > 100 µM | [7] > 100 µM | [8] > 100 µM | [10] > 100 µM | [11] > 100 µM | [12] > 100 µM | [15] > 100 µM | [13] > 100 µM | [14] > 100 µM

N#C/C(=C\c1cc(O)cc(O)c1)C(N)=O
inactive: [1] 21 µM | [2] > 100 µM | [3] > 100 µM | [4] > 100 µM | [5] > 100 µM | [6] > 100 µM | [7] > 100 µM | [8] 22 µM | [9] > 100 µM | [10] > 100 µM | [12] > 100 µM | [15] > 100 µM | [13] > 100 µM

CC1NC(=O)C(C)C(c2ccccc2)N(N=O)C1c1ccccc1 (stereo unspecified)
inactive: [1] 88.9 µM | [2] 28.2 µM | [3] 36.8 µM | [4] 48.5 µM | [5] > 100 µM | [7] > 100 µM | [8] > 38.3 µM | [9] 60.7 µM | [10] > 76.9 µM | [11] > 71.3 µM | [12] 29.2 µM | [15] 72.1 µM | [13] > 100 µM | [14] 96.8 µM

O=C1C(Cl)N(c2ccccc2[N+](=O)[O-])C1c1c[nH]c2ccccc12 (stereo unspecified)
inactive: [1] > 100 µM | [2] > 100 µM | [3] > 100 µM | [4] > 100 µM | [5] > 100 µM | [6] > 100 µM | [7] > 100 µM | [8] 27.4 µM | [9] > 100 µM | [10] > 100 µM | [11] > 100 µM | [12] > 100 µM | [13] > 100 µM

Cc1cc(C(=O)NCCN(C)C)c2nc3ccccc3cc2c1
active: [3] 0.381 µM | [4] 1.04 µM | [5] 0.867 µM | [7] 0.889 µM
inactive: [2] 2.16 µM | [6] 1.85 µM | [8] 3.13 µM | [9] 1.63 µM | [10] 2.01 µM | [11] 1.64 µM | [12] 1.13 µM | [15] 1.96 µM | [13] 2.69 µM | [14] 1.74 µM

C#CC(C)(C)OCCCCOc1cc(O)c2c(=O)c3ccccc3n(C)c2c1
inactive: [1] > 100 µM | [2] > 100 µM | [4] 29.3 µM | [5] > 100 µM | [6] > 100 µM | [7] > 100 µM | [8] 84.5 µM | [9] > 100 µM | [10] > 100 µM | [11] 66.5 µM | [12] 21.7 µM | [15] > 100 µM | [13] > 100 µM | [14] > 100 µM

CON(C)C(C#N)=C(C#N)C#N
inactive: [1] > 10 µM | [2] > 10 µM | [16] > 10 µM | [17] > 10 µM | [3] > 10 µM | [18] > 10 µM | [5] > 10 µM | [7] > 10 µM | [19] > 10 µM | [8] > 10 µM | [9] > 10 µM | [20] > 10 µM | [10] > 10 µM | [11] > 10 µM | [12] > 10 µM | [13] > 10 µM

Cn1c2ccc([N+](=O)[O-])cc2c(=O)n1Cc1ccccc1F
inactive: [1] 24.5 µM | [2] > 100 µM | [16] 27.4 µM | [17] 25.8 µM | [3] 45.8 µM | [18] 34.2 µM | [5] 44.3 µM | [7] > 100 µM | [19] 74.3 µM | [8] 20.9 µM | [9] 61 µM | [20] 55.7 µM | [10] 33.5 µM | [11] 38.3 µM | [12] 54.7 µM | [13] 37.7 µM
